Reference: article PMC9613470, “Diverse MarR bacterial regulators of auxin catabolism in the plant microbiome” (Nature Microbiology, 2022)

How the values were obtained:
MarR_73 S28A H32A R46A = assay: ITC IAA binding to MarR_73 S28A H32A R46A mutant; set-up: species or system Variovorax paradoxus CL14; details: 25 °C
Procedure: The coding sequence for each gene can be found in Supplementary Table 10. MarR expression plasmids were synthesized as codon-optimized genes for E. coli expression by BioBasic in the pLIC-His N-term vector (pMCSG7) and transformed into E. coli BL21 (DE3) Gold cells for expression. […] At an OD600 of 0.8, protein expression was induced by the addition of 0.1 mM IPTG and incubation continued overnight. Cells were collected by centrifugation at 4,500 × g for 20 min at 4 °C in a Sorvall (model RC-3B) swinging bucket centrifuge. Cell pellets were resuspended in buffer A (20 mM potassium phosphate, pH 7.4, 50 mM imidazole, 500 mM NaCl), DNase, lysozyme and a Roche Complete EDTA-free protease inhibitor tablet. Resuspended cells were sonicated and clarified via centrifugation at 17,000 × g for 60 min in a Sorvall (model RC-5B) swinging bucket centrifuge. The lysate was applied to a nickel-nitrilotriacetic acid HP column (GE Healthcare) on an Aktaxpress Fast Performance Liquid Chromatography (FPLC) system (Amersham Bioscience) and washed with buffer A. Protein was eluted with buffer B (20 mM potassium phosphate, pH 7.4, 500 mM imidazole, 500 mM NaCl). Fractions containing the protein of interest were combined and passed over a HiLoadTM 16/60 SuperdexTM 200 gel filtration column. Proteins were eluted in S200 buffer (20 mM HEPES, pH 7.4, 300 mM NaCl). […]

MarR_73 R46A = MarR_73 R46A (Variovorax paradoxus, UniProt C5CSP2, R46A); assay: biochemical
Chain of MarR_73 R46A (C5CSP2 1-158, stated change not applied): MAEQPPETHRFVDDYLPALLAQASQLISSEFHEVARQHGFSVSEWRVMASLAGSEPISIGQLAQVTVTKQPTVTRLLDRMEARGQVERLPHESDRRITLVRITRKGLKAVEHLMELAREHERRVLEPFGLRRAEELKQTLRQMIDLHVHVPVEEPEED
Procedure: (§1) The coding sequence for each gene can be found in Supplementary Table 10. MarR expression plasmids were synthesized as codon-optimized genes for E. coli expression by BioBasic in the pLIC-His N-term vector (pMCSG7) and transformed into E. coli BL21 (DE3) Gold cells for expression. […] At an OD600 of 0.8, protein expression was induced by the addition of 0.1 mM IPTG and incubation continued overnight. Cells were collected by centrifugation at 4,500 × g for 20 min at 4 °C in a Sorvall (model RC-3B) swinging bucket centrifuge. Cell pellets were resuspended in buffer A (20 mM potassium phosphate, pH 7.4, 50 mM imidazole, 500 mM NaCl), DNase, lysozyme and a Roche Complete EDTA-free protease inhibitor tablet. Resuspended cells were sonicated and clarified via centrifugation at 17,000 × g for 60 min in a Sorvall (model RC-5B) swinging bucket centrifuge. The lysate was applied to a nickel-nitrilotriacetic acid HP column (GE Healthcare) on an Aktaxpress Fast Performance Liquid Chromatography (FPLC) system (Amersham Bioscience) and washed with buffer A. Protein was eluted with buffer B (20 mM potassium phosphate, pH 7.4, 500 mM imidazole, 500 mM NaCl). Fractions containing the protein of interest were combined and passed over a HiLoadTM 16/60 SuperdexTM 200 gel filtration column. Proteins were eluted in S200 buffer (20 mM HEPES, pH 7.4, 300 mM NaCl). Fractions were combined and concentrated for long-term storage at −80 °C.
(§2) MarR mutant proteins were created by site-directed mutagenesis using primers from Integrated DNA Technologies. […] The mutants were produced and purified using E. coli BL21 (DE3) Gold as described above.
(§3) All ITC measurements were performed at 25 °C using an Auto-ITC200 microcalorimeter (MicroCal/GE Healthcare). The buffer employed was 20 mM HEPES, pH 7.4, 50 mM NaCl and 0.5% dimethly sulfoxide (DMSO) for protein/ligand binding and 20 mM HEPES, pH 7.4 and 300 mM NaCl for DNA/protein binding experiments. For ligand binding experiments, the calorimetry cell (volume […]) was loaded with MarR wild-type, mutant or homologue protein at a concentration of 50 μM. The syringe was loaded with a ligand concentration of 0.5 or 2 mM. […] A typical injection protocol included a single 0.2 μl first injection followed by 20 1.5 μl injections of the syringe sample into the calorimetry cell. The spacing between injections was kept at 180 s and the reference power at 8 μcal s^−1. […] Two independent ITC measurements were performed for each condition.

MarR_73 H32A = MarR_73 H32A (Variovorax paradoxus, UniProt C5CSP2, H32A); assay: biochemical
Chain of MarR_73 H32A (C5CSP2 1-158, stated change not applied): as above
Procedure: as §1, §2, §3

[1] = tested on: A. thaliana ecotype Col-0; assay: Root growth inhibition assay (primary root elongation); type: in vivo, Arabidopsis thaliana; details: Arabidopsis seedlings with IAA alone, 1 µM IAA
Procedure: A. thaliana ecotype Col-0 seeds were sterilized in 70% household bleach, 0.2% Tween-20 for 10 min with vigorous agitation and then rinsed 10 times with sterile distilled water. Seeds were stratified at 4 °C in sterile distilled water for 1–2 d. […] Then 8 to 10 plants were aseptically transferred to 12 ×12 cm plates containing 0.5x MS agar medium without sucrose where the medium surface was spread with the bacterial inoculum. […] The plant root tip location was marked on plates after transfer to record the initial root tip position. […] Plates were imaged on a document scanner and primary root elongation was determined using imageJ to quantify the change in root tip position from the initial to the final position.
Individual bacterial strains were grown on agar plates of the media types specified above at 28 °C. […] The optical density at 600 nm (OD600) was measured for each washed strain and normalized to OD600 of 0.01 in 10 mM MgCl2. […]
The 175-member synthetic community (SC185-10V) was prepared as described for the 185-member synthetic community used previously[14] by leaving out the 10 isolates from the genus Variovorax. […] The OD600 of the strains in each well was measured and the strains were combined while normalizing the OD600 of each strain in the pool. […] The OD600 values of the 10 cultures were measured and the 10 strains were pooled while normalizing the OD600 of each strain to the same value. […]

[2] = target: T1, Enterobacter soli LF7 MarR_Es (Enterobacter soli, UniProt A0AAW8H3I9, A146S); assay: ITC IAA binding to MarR_Es; details: 25 °C, IacR
T1 sequence (A0AAW8H3I9 1-157 A146S): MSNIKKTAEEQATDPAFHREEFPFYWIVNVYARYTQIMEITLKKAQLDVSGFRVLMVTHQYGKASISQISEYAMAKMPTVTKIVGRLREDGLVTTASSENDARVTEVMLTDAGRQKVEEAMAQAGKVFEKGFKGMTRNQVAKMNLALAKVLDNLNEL
Procedure: All ITC measurements were performed at 25 °C using an Auto-ITC200 microcalorimeter (MicroCal/GE Healthcare). The buffer employed was 20 mM HEPES, pH 7.4, 50 mM NaCl and 0.5% dimethly sulfoxide (DMSO) for protein/ligand binding and 20 mM HEPES, pH 7.4 and 300 mM NaCl for DNA/protein binding experiments. For ligand binding experiments, the calorimetry cell (volume 200 ml) was loaded with MarR wild-type, mutant or homologue protein at a concentration of 50 μM. The syringe was loaded with a ligand concentration of 0.5 or 2 mM. […] A typical injection protocol included a single 0.2 μl first injection followed by 20 1.5 μl injections of the syringe sample into the calorimetry cell. The spacing between injections was kept at 180 s and the reference power at 8 μcal s^−1. The data were analysed using Origin for ITC version 7.0 software supplied by the manufacturer and fit well to a one-site binding model. Two independent ITC measurements were performed for each condition.

**Q.** Which KD (MarR_73 S28A H32A R46A) does the source give for `O=C(O)Cc1c[nH]c2ccccc12` [IAA, indole-3-acetic acid] here?
**A.** The KD was “No Binding”.

**Q.** And the Kd (MarR_73 R46A)?
**A.** The Kd was 11 ± 1 µM.

**Q.** What about the N (MarR_73 R46A; ITC, 25 °C, mutant R46A) of the same compound?
**A.** Its N is 1.1 ± 0.1.

**Q.** And the Kd (MarR_73 H32A)?
**A.** Its Kd is 3.1 ± 0.1 µM.

**Q.** And the N (MarR_73 H32A; ITC, 25 °C, mutant H32A)?
**A.** Its N is 0.28 ± 0.01.

**Q.** And the “root growth inhibition (RGI) phenotype” value [1]?
**A.** The value was “severe RGI phenotype”.

**Q.** And the N1 [2]?
**A.** The N1 was 0.967 ± 0.006.
